# Laboratory results: ChEMBL document CHEMBL6109117, “Synthesis of an RBM39 Degrader That Downregulates CEP192 and Induces Disorganized Spindle Structures” (J Med Chem, 2025)
# Active and inactive are the calls of the source. The calls are words filed in the database; no cut-off is given here.
# Tests used:
# MV4-11 [1] = experiment: Induction of spliceosome function impairment in human MV4-11 cells assessed as increase in PRPF38A RI transcript incubated for 12 hrs by qRT-PCR analysis; format: functional, cell-based; conditions: dose 1-10 µM
# HCT-116 [2] = experiment: Induction of apoptosis in human HCT-116 cells assessed as change in PARP level at 0.1 to 5 uM incubated for 48 hrs by Western blot analysis; format: functional, cell-based; conditions: dose 0.1-5 µM
# [3] = Competitive inhibition of N-terminal His-tagged RBM39 (146 to 326 residues)/DCAF15 (2 to 600 residues)/full-length DDB1 (1 to 1140 residues)(unknown origin) incubated for 1 hr in presence of (R)-N-(3-(N-(3-Cyano-4-methyl-1H-indol-7-yl)sulfamoyl)phenyl)-2-(2-(((6-(3-(3',6'-dihydroxy-3-oxo-3H-spiro[isobenzofuran-1,9'-xanthen]-5-yl)thioureido)hexyl)amino)methyl)pyrrolidin-1-yl)-2-oxoacetamide by fluorescence polarization assay; design: species or system Homo sapiens
# HCT-116 [4] = experiment: Effect on RNA splicing in human HCT-116 cells assessed as RTTN gene exon splicing at 2 uM incubated for 12 hrs by RNA-seq analysis; format: functional, cell-based
# HCT-116 [5] = experiment: Induction of RBM39 degradation in human HCT-116 cells incubated for 24 hrs by Western blot analysis; format: cell-based
# MV4-11 [6] = experiment: Induction of spliceosome function impairment in human MV4-11 cells assessed as increase in CUL4A RI transcript incubated for 12 hrs by qRT-PCR analysis; format: functional, cell-based; conditions: dose 1-10 µM
# HCT-116 [7] = experiment: Induction of RBM39 degradation in human HCT-116 cells at 0.05 to 5 uM incubated for 24 hrs in presence of MG132 by Western blot analysis; format: cell-based; conditions: dose 0.05-5 µM
# HCT-116 [8] = experiment: Induction of RBM39 degradation in human HCT-116 cells assessed as fold change at 0.1 uM incubated for 24 hrs by Western blot analysis relative to control; format: cell-based
# K562 [9] = experiment: Induction of spliceosome function impairment in human K562 cells assessed as increase in PRPF38A RI transcript incubated for 12 hrs by qRT-PCR analysis; format: functional, cell-based; conditions: dose 1-10 µM
# HCT-116 [10] = experiment: Antiproliferative activity against human HCT-116 cells incubated for 4 days by CCK8 assay; format: functional, cell-based; conditions: HCT-116, 96 h
# HCT-116 [11] = experiment: Induction of cell cycle arrest in human HCT-116 cells assessed as accumulation at G2/M phase at 1 uM by PI staining based flow cytometry; format: functional
# K562 [12] = experiment: Effect on RNA splicing in human K562 cells assessed as CEP192 gene skipping exon at 2 uM incubated for 12 hrs by RNA-seq analysis; format: functional, cell-based
# [13] = Effect on RNA splicing in human HCT-116 cells assessed as number of retention of introns at 2 uM incubated for 12 hrs by RNA-seq analysis; format: functional
# K562 [14] = experiment: Effect on RNA splicing in human K562 cells assessed as CEP192 gene alternative 3' splicing site at 2 uM incubated for 12 hrs by RNA-seq analysis; format: functional, cell-based
# [15] = Effect on mitosis in human HCT-116 cells assessed as defective mitotic cells at 1 uM incubated for 48 hrs by immunofluorescence based analysis relative to control; format: functional
# K562 [16] = experiment: Effect on RNA splicing in human K562 cells assessed as CEP192 gene skipping exons up to 10 uM by PCR analysis; format: functional, cell-based; conditions: time 1-24 hrs
# K562 [17] = experiment: Induction of spliceosome function impairment in human K562 cells assessed as decrease in NCKAP1L transcript at 1 to 10 uM incubated for 12 hrs by qRT-PCR analysis; format: functional, cell-based; conditions: dose 1-10 µM
# K562 [18] = experiment: Induction of spliceosome function impairment in human K562 cells assessed as decrease in PRPF38A transcript at 1 to 10 uM incubated for 12 hrs by qRT-PCR analysis; format: functional, cell-based; conditions: dose 1-10 µM
# K562 [19] = experiment: Effect on RNA splicing in human K562 cells assessed as KNL1 gene skipping exon at 2 uM incubated for 12 hrs by RNA-seq analysis; format: functional, cell-based
# MV4-11 [20] = experiment: Induction of spliceosome function impairment in human MV4-11 cells assessed as decrease in ZNF207 transcript at 1 to 10 uM incubated for 12 hrs by qRT-PCR analysis; format: functional, cell-based; conditions: dose 1-10 µM
# [21] = Effect on RNA splicing in human HCT-116 cells assessed as number of skipping exons at 2 uM incubated for 12 hrs by RNA-seq analysis; format: functional
# HCT-116 [22] = experiment: Effect on RNA splicing in human HCT-116 cells assessed as ESPL1 gene exon splicing at 2 uM incubated for 12 hrs by RNA-seq analysis; format: functional, cell-based
# HCT-116 [23] = experiment: Downregulation of CEP192 expression in human HCT-116 cells incubated for 24 hrs by Western blot analysis; format: functional, cell-based
# K562 [24] = experiment: Effect on RNA splicing in human K562 cells assessed as CEP192 gene retention of introns up to 10 uM by PCR analysis; format: functional, cell-based; conditions: time 1-24 hrs
# HCT-116 [25] = experiment: Effect on RNA splicing in human HCT-116 cells assessed as MCL-1 gene alternative splicing at 2 uM incubated for 12 hrs by RNA-seq analysis; format: functional, cell-based
# HCT-116 [26] = experiment: Induction of cell cycle arrest in human HCT-116 cells assessed as accumulation at G2/M phase at 5 uM incubated for 48 hrs by PI staining based flow cytometry relative to control; format: functional
# MV4-11 [27] = experiment: Induction of spliceosome function impairment in human MV4-11 cells assessed as decrease in PRPF38A transcript at 1 to 10 uM incubated for 12 hrs by qRT-PCR analysis; format: functional, cell-based; conditions: dose 1-10 µM
# HCT-116 [28] = experiment: Induction of RBM39 degradation in human HCT-116 cells at 1 uM incubated for 24 hrs by mass spectrometry-based proteomic analysis; format: cell-based
# HCT-116 [29] = experiment: Effect on RNA splicing in human HCT-116 cells assessed as ESPL1 gene alternative 5' splice site at 2 uM incubated for 12 hrs by RNA-seq analysis; format: functional, cell-based
# HCT-116 [30] = experiment: Induction of cell cycle arrest in human HCT-116 cells assessed as accumulation at G2/M phase at 0.1 to 5 uM incubated for 48 hrs by PI staining based flow cytometry; format: functional; conditions: dose 0.1-5 µM
# K562 [31] = experiment: Induction of spliceosome function impairment in human K562 cells assessed as increase in NCKAP1L RI transcript incubated for 12 hrs by qRT-PCR analysis; format: functional, cell-based; conditions: dose 1-10 µM
# HCT-116 [32] = experiment: Induction of RBM39 degradation in human HCT-116 cells at 0.1 to 1 uM incubated for 24 hrs by Western blot analysis; format: cell-based; conditions: dose 0.1-1 µM
# K562 [33] = experiment: Effect on RNA splicing in human K562 cells assessed as ESPL1 gene alternative 5' splicing site at 2 uM incubated for 12 hrs by RNA-seq analysis; format: functional, cell-based
# K562 [34] = experiment: Induction of spliceosome function impairment in human K562 cells assessed as increase in CUL4A RI transcript incubated for 12 hrs by qRT-PCR analysis; format: functional, cell-based; conditions: dose 1-10 µM
# K562 [35] = experiment: Induction of spliceosome function impairment in human K562 cells assessed as decrease in CUL4A transcript at 1 to 10 uM incubated for 12 hrs by qRT-PCR analysis; format: functional, cell-based; conditions: dose 1-10 µM
# HCT-116 [36] = experiment: Induction of apoptosis in human HCT-116 cells at 0.1 to 5 uM incubated for 48 hrs by Annexin V-FITC/PI staining based flow cytometry; format: functional, cell-based; conditions: dose 0.1-5 µM
# K562 [37] = experiment: Effect on RNA splicing in human K562 cells assessed as ESPL1 gene skipping exon at 2 uM incubated for 12 hrs by RNA-seq analysis; format: functional, cell-based
# HCT-116 [38] = experiment: Effect on RNA splicing in human HCT-116 cells assessed as KNL1 gene exon splicing at 2 uM incubated for 12 hrs by RNA-seq analysis; format: functional, cell-based
Compound,Activity (MV4-11 [1]),Activity (HCT-116 [2]),IC50 [3] [nM],Activity (HCT-116 [4]),Activity (HCT-116 [5]),Activity (MV4-11 [6]),Activity (HCT-116 [7]),fold change (FC) (HCT-116 [8]),Activity (K562 [9]),IC50 (HCT-116 [10]) [nM],Activity (HCT-116 [11]),Activity (K562 [12]),Activity [13],Activity (K562 [14]),Activity [15] [%],Activity (K562 [16]),Activity (K562 [17]),Activity (K562 [18]),Activity (K562 [19]),Activity (MV4-11 [20]),other results
NS(=O)(=O)c1ccc(S(=O)(=O)Nc2cccc3c(Cl)c[nH]c23)cc1 [INDISULAM],Active,inactive,417,Active,Dose-dependent-effect,Active,inactive,0.59,Active,96.8,Time-dependent-effect,Active,1378,Active,18.3,Time-dependent-effect; Observed Skipping Exons 42 And 28,Active,Active,Active,Active,Activity [21]: 10485; Activity (HCT-116 [22]): Active; Activity (HCT-116 [23]): Dose-dependent-effect; Activity (K562 [24]): Time-dependent-effect; Observed Retention Of Introns Between Exons 27 And 28; Activity (HCT-116 [25]): No effect; Activity (HCT-116 [26]): 55%; Activity (MV4-11 [27]): Active; Activity (HCT-116 [28]): Active; Activity (HCT-116 [29]): Active; Activity (HCT-116 [30]): Active; Activity (K562 [31]): Active; Activity (HCT-116 [32]): Active; Activity (K562 [33]): Active; Activity (K562 [34]): Active; Activity (K562 [35]): Active; Activity (HCT-116 [36]): inactive; Activity (K562 [37]): Active; Activity (HCT-116 [38]): Active
Cc1ccc(NS(=O)(=O)c2cccc(NC(=O)C(=O)N3CCC[C@@H]3CO)c2)c2[nH]cc(C#N)c12,Active,inactive,594,Active,Dose-dependent-effect,Active,inactive,0.61,Active,36.7,Time-dependent-effect,Active,1098,Active,21.8,Time-dependent-effect; Observed Skipping Exons 42 And 28,Active,Active,Active,Active,Activity [21]: 8905; Activity (HCT-116 [22]): Active; Activity (HCT-116 [23]): Dose-dependent-effect; Activity (K562 [24]): Time-dependent-effect; Observed Retention Of Introns Between Exons 27 And 28; Activity (HCT-116 [25]): No effect; Activity (HCT-116 [26]): 60%; Activity (MV4-11 [27]): Active; Activity (HCT-116 [28]): Active; Activity (HCT-116 [29]): Active; Activity (HCT-116 [30]): Active; Activity (K562 [31]): Active; Activity (HCT-116 [32]): Active; Activity (K562 [33]): Active; Activity (K562 [34]): Active; Activity (K562 [35]): Active; Activity (HCT-116 [36]): inactive; Activity (K562 [37]): Active; Activity (HCT-116 [38]): Active
